The results in this text go back to US20260070921A1, “COMPOUND, ENDOPLASMIC RETICULUM STRESS INHIBITOR, PHARMACEUTICAL PRODUCT, OPHTHALMIC AGENT, EYE DROPS, COMPOSITION, AND METHOD FOR PRODUCING COMPOUND” (KYOTO UNIVERSITY, priority 2022, published 2026).

Structures are written as SMILES.

Series [1] deals with HEK293 cells. The series can be described thus: Tunicamycin assay (cell viability under ER stress, WST-8). The series is classed as cell-based. To be noted: for Efficacy 5 μM (ER stress inhibition activity): compound 5 μM 12 to 18 h; for Efficacy 5 μM (ER stress inhibition activity) / Efficacy 25 μM (ER stress inhibition activity) / Efficacy 100 μM (ER stress inhibition activity): then tunicamycin 5 μg/mL 48 h; for Efficacy 25 μM (ER stress inhibition activity): compound 25 μM 12 to 18 h; for Efficacy 100 μM (ER stress inhibition activity): compound 100 μM 12 to 18 h. The arrangement: key to Efficacy 5 μM (ER stress inhibition activity) / Efficacy 25 μM (ER stress inhibition activity) / Efficacy 100 μM (ER stress inhibition activity): “−” indicates no activity; “+” indicates weak activity; “++” indicates strong activity. How it is done: HEK293 cells were seeded in 96-well plates ([…]) and incubated at 37° C. for 2 hours. The medium was then replaced with 100 μL of DMEM ([…]) containing self-assembling chemicals (20 or more compounds, including compounds of the present disclosure) and 1% DMSO. After incubation with any one of compounds 1 to 6 at a given concentration for 12 to 18 hours, HEK293 cells were treated with tunicamycin (5 μg/mL) or thapsigargin (10 μM) for 48 hours, and cell viability was measured using a WST-8 cell counting kit (Dojindo Laboratories).
Produced compounds XD8 to XD28 were subjected to a tunicamycin assay in the same manner as in Examples 1 to 9. Specifically, HEK293 cells were first seeded in a 96-well plate (1×10^4 cells/well) and incubated at 37° C. for 2 hours. The medium was then replaced with 100 μL of DMEM (10% FBS) containing a self-assembling chemical (each of compounds XD8 to XD28) and […]. After incubation with any of compounds XD8 to XD28 at a concentration of 5.0 μM, 25 μM, or 100 μM for 12 to 18 hours, HEK293 cells were treated with tunicamycin (5 μg/mL) for 48 hours, followed by measuring cell viability by using a WST-8 cell counting kit (Dojindo Laboratories).

The nature of series [2]: Dynamic light scattering (DLS) of self-assemblies. In kind it is physicochemical. The source says:
In the graphs on the left, the vertical axis “Z-ave. (nm)” represents the average particle size. In the graphs on the right, the vertical axis “Derived Count Rate (kcps)” represents the derived count rate. The horizontal axis represents the molar concentration (PM) of PBS (pH of 7.4) and DMEM (10% FBS). Error bars represent s.d. (n=3).
“Z-ave.” represents the average size of particles. Error bars represent s.d. (n=3).
“Z-average” represents the average size of particles. Error bars represent s.d. (n=3).

For series [3], the system named is HEK293 cells. The series can be described thus: Cell viability assay without ER stress inducer (cytotoxicity, WST-8). In kind it is cell-based. To be noted: 64 h. How it is done:
HEK293 cells were treated with compound 1, compound 4, compound 5, or compound 6 (25 μM or 100 μM, respectively) for 64 hours. The vertical axis represents relative cell viability (unit: %), and the horizontal axis represents concentration (unit: μM). Cell viability was measured using a WST-8 cell counting kit. Error bars represent s.d. (n=3).
FIG. 31 is a graph showing the results of a cell viability assay using bafilomycin A1. HEK293 cells were treated with bafilomycin A1 in DMEM (10% FBS) for 48 hours. The vertical axis represents relative cell viability (unit: %), and the horizontal axis represents the concentration of bafilomycin A1 (unit: μM). Cell viability was measured using a WST-8 cell counting kit. Error bars represent s.d. (n=3).
FIG. 32 is a graph showing the results of a cell viability assay using MG132. HEK293 cells were treated with MG132 in DMEM (10% FBS) for 48 hours. The vertical axis represents relative cell viability (unit: t), and the horizontal axis represents the concentration of MG132 (unit: μM). Cell viability was measured using a WST-8 cell counting kit. Error bars represent s.d. (n=3).
The term “Efficacy” denotes ER (endoplasmic reticulum) stress inhibition activity. The term “Toxicity” denotes cytotoxicity. In the ER stress inhibition activity (Efficacy), “−” indicates no activity, “+” indicates weak activity, and “++” indicates strong activity. In addition, “XD7” in Table 1 below represents compound 6. That is, XD7 and compound 6 are the same compound.

Series [4] concerns HEK293 cells. The series can be described thus: Fluorescence imaging of self-assemblies in living cells (DCVJ). In kind it is cell-based. To be noted: 100 μM, DCVJ 1.0 μM, 8 h. How it is done:
HEK293 cells were incubated with compound 1, 4, 5, or 6 (25 or 100 μM) in the presence of 1.0 μM DCVJ in DMEM (10% FBS). Fluorescence and bright-field images were taken with a CV1000 confocal microscope equipped with a 40× objective lens (Yokogawa Electric Corporation).
The ability of compound 1 and its derivatives, compounds 4 to 6, to form assemblies was also monitored in living cells. […] HEK293 cells were treated with compound 1, 4, 5, or 6 (25 μM or 100 μM) and 1.0 μM of DCVJ for 8 hours. Fluorescence and bright-field images were taken with a CV1000 confocal microscope. HEK293 cells were treated with compound 1, 4, 5, or 6 (25 or 100 μM) and DCVJ (1.0 μM) for 8 hours and observed with a confocal microscope. […] The self-assembling ability of the molecules of compound 6 may be due to its cellular activity at that concentration, even at 25 μM. […] To further support the importance of self-organization formation in cellular activity, dose-response curves for compounds 1 and 6 were determined. The biological activity of the compounds' molecular assembly is expected to be more cooperative than that of the monomer and to show a steeper dose-response curve (Reference Material 18 below). […] Compound 6 is referred to as “selfonamide” below. […] P. A High-Throughput Screen for Aggregation-Based Inhibition in a Large Compound Library. J Med Chem 2007, 50 (10), 2385-2390. https://doi.org/10.1021/jm061317y.

Where [5] appears, read: even at higher concentrations, tunicamycin 5.0 μg/mL 48 h.

A word on the EC50: it is the midpoint of the concentration-response curve. `O=C(O)CCCc1ccccc1` [PBA, reference compound]: the “Rescue from tunicamycin-induced cell death (secondary screen)” value (from here on “Rescue … (secondary screen)”) in series [1] (setting [5]) was “little effect”. Besides, the EC50 in series [1] (tunicamycin 5.0 μg/mL 48 h, read-out: EC50 (dose-response curve, Hill equation)) amounted to 483 µM.
`NS(=O)(=O)c1ccc(Nc2ccnc(N(C(=O)c3sc4cc(F)ccc4c3Cl)C(=O)c3sc4cc(F)ccc4c3Cl)n2)cc1` [TD-4C8]: the “Rescue … (secondary screen)” value in series [1] (compound 50 μM, tunicamycin 5.0 μg/mL 48 h) is listed as “significantly rescued cells from tunicamycin-induced cell death”.
As to `C[C@H](CCC(=O)NCCS(=O)(=O)O)[C@H]1CC[C@H]2[C@@H]3[C@@H](O)C[C@@H]4C[C@H](O)CC[C@]4(C)[C@H]3CC[C@]12C` [TUDCA, reference compound], in series [1] (setting [5]), the “Rescue … (secondary screen)” value is “little effect”.
As to `NS(=O)(=O)c1ccc(Nc2ccn3c(n2)nc(=O)c2sc4cc(Cl)ccc4c23)cc1` [XD8], in series [1], the “Efficacy 5 μM (ER stress inhibition activity)” value is listed as “−”, the “Efficacy 25 μM (ER stress inhibition activity)” value is on record as “+” and the “Efficacy 100 μM (ER stress inhibition activity)” value is recorded as “++”.
For `NS(=O)(=O)c1ccc(Nc2ccn3c(n2)nc(=O)c2sc4cc([N+](=O)[O-])ccc4c23)cc1` [XD9], in series [1], the “Efficacy 5 μM (ER stress inhibition activity)” value is given as “−”, the “Efficacy 25 μM (ER stress inhibition activity)” value was “++” and the “Efficacy 100 μM (ER stress inhibition activity)” value was “+”.
In the case of `NS(=O)(=O)c1ccc(Nc2ccn3c(n2)nc(=O)c2sc4cc5c(cc4c23)OCO5)cc1` [XD10], in series [1], the “Efficacy 5 μM (ER stress inhibition activity)” value is reported as “−”, the “Efficacy 25 μM (ER stress inhibition activity)” value is recorded as “−” and the “Efficacy 100 μM (ER stress inhibition activity)” value is on record as “−”.
Turning to `COc1cc2sc3c(=O)nc4nc(Nc5ccc(S(N)(=O)=O)cc5)ccn4c3c2cc1OC` [XD11], in series [1], the “Efficacy 5 μM (ER stress inhibition activity)” value was “−”, the “Efficacy 25 μM (ER stress inhibition activity)” value was “−” and the “Efficacy 100 μM (ER stress inhibition activity)” value is on record as “++”.
With `NS(=O)(=O)c1ccc(Nc2ccn3c(n2)nc(=O)c2sc4cc(Br)ccc4c23)cc1` [XD12], in series [1], the “Efficacy 5 μM (ER stress inhibition activity)” value is listed as “−”, the “Efficacy 25 μM (ER stress inhibition activity)” value was “+” and the “Efficacy 100 μM (ER stress inhibition activity)” value was “++”.
`NS(=O)(=O)c1ccc(Nc2ccn3c(n2)nc(=O)c2sc4cc(F)c(F)cc4c23)cc1` [XD13]: in series [1], the “Efficacy 5 μM (ER stress inhibition activity)” value is “−”, the “Efficacy 25 μM (ER stress inhibition activity)” value is listed as “++” and the “Efficacy 100 μM (ER stress inhibition activity)” value is “++”.
`CCOc1ccc2c(c1)sc1c(=O)nc3nc(Nc4ccc(S(N)(=O)=O)cc4)ccn3c12` [XD14]: in series [1], the “Efficacy 5 μM (ER stress inhibition activity)” value is reported as “−”, the “Efficacy 25 μM (ER stress inhibition activity)” value was “−” and the “Efficacy 100 μM (ER stress inhibition activity)” value is recorded as “−”.
Regarding `CCCOc1ccc2c(c1)sc1c(=O)nc3nc(Nc4ccc(S(N)(=O)=O)cc4)ccn3c12` [XD15], in series [1], the “Efficacy 5 μM (ER stress inhibition activity)” value is given as “−”, the “Efficacy 25 μM (ER stress inhibition activity)” value is “−” and the “Efficacy 100 μM (ER stress inhibition activity)” value is on record as “−”.
In the case of `CCCCOc1ccc2c(c1)sc1c(=O)nc3nc(Nc4ccc(S(N)(=O)=O)cc4)ccn3c12` [XD16], in series [1], the “Efficacy 5 μM (ER stress inhibition activity)” value is on record as “−”, the “Efficacy 25 μM (ER stress inhibition activity)” value is reported as “−” and the “Efficacy 100 μM (ER stress inhibition activity)” value is given as “−”.
For the molecule `CCCCCCOc1ccc2c(c1)sc1c(=O)nc3nc(Nc4ccc(S(N)(=O)=O)cc4)ccn3c12` [XD17], in series [1], the “Efficacy 5 μM (ER stress inhibition activity)” value is “−”, the “Efficacy 25 μM (ER stress inhibition activity)” value is given as “−” and the “Efficacy 100 μM (ER stress inhibition activity)” value is reported as “+”.
In the case of `NS(=O)(=O)c1ccc(Nc2ccn3c(n2)nc(=O)c2sc4cc(OCc5ccccc5)ccc4c23)cc1` [XD18], in series [1], the “Efficacy 5 μM (ER stress inhibition activity)” value is “−”, the “Efficacy 25 μM (ER stress inhibition activity)” value is reported as “−” and the “Efficacy 100 μM (ER stress inhibition activity)” value is reported as “−”.
For the molecule `N=C(N)NS(=O)(=O)c1ccc(Nc2ccn3c(n2)nc(=O)c2sc4cc([N+](=O)[O-])ccc4c23)cc1` [XD20], in series [1], the “Efficacy 100 μM (ER stress inhibition activity)” value is recorded as “+”.
In the case of `COc1ccc2c(c1)sc1c(=O)nc3nc(Nc4ccc(S(=O)(=O)NC(=N)N)cc4)ccn3c12` [XD21], in series [1], the “Efficacy 25 μM (ER stress inhibition activity)” value was “++” and the “Efficacy 100 μM (ER stress inhibition activity)” value is reported as “++”.
`CCCOc1ccc2c(c1)sc1c(=O)nc3nc(Nc4ccc(S(=O)(=O)NC(=N)N)cc4)ccn3c12` [XD25]: in series [1], the “Efficacy 25 μM (ER stress inhibition activity)” value is recorded as “++” and the “Efficacy 100 μM (ER stress inhibition activity)” value is recorded as “+”.
Taken in the same sequence, the figures for `CCCCOc1ccc2c(c1)sc1c(=O)nc3nc(Nc4ccc(S(=O)(=O)NC(=N)N)cc4)ccn3c12` [XD26] were “+” and “++”.
Take `N=C(N)NS(=O)(=O)c1ccc(Nc2ccn3c(n2)nc(=O)c2sc4cc(OCc5ccccc5)ccc4c23)cc1` [XD28]: in series [1], the “Efficacy 100 μM (ER stress inhibition activity)” value is recorded as “++”.
For the molecule `O=c1nc2nc(Nc3ccccc3)ccn2c2c1sc1cc(F)ccc12` [compound 2], in series [1] (tunicamycin 5.0 μg/mL 48 h), the “Ability to rescue cells from tunicamycin-induced ER stress” value (“Ability to rescue cells” below) was “eliminated the ability of the compounds to rescue cells”. In addition, in series [2], the “Self-assembly activity (self-assembling ability)” value is recorded as “confirmed to have self-assembly activity”.
Turning to `CS(=O)(=O)c1ccc(Nc2ccn3c(n2)nc(=O)c2sc4cc(F)ccc4c23)cc1` [compound 3], the “Ability to rescue cells” value in series [1] (tunicamycin 5.0 μg/mL 48 h) is “eliminated the ability of the compounds to rescue cells”. Further, the “Self-assembly activity (self-assembling ability)” value in series [2] is “confirmed to have self-assembly activity”.
On to `NS(=O)(=O)c1ccc(Nc2ccn3c(n2)nc(=O)c2sc4ccccc4c23)cc1` [compound 4], for which, in series [3] (up to 100 μM), the Cytotoxicity result is “no obvious cytotoxicity”.
As to `Cc1ccc2c(c1)sc1c(=O)nc3nc(Nc4ccc(S(N)(=O)=O)cc4)ccn3c12` [compound 5], in series [1] (tunicamycin 5.0 μg/mL 48 h), the “Ability to rescue cells” value was “lost activity”. Moreover, the Cytotoxicity entry in series [3] (at 25 μM) is on record as “no obvious cytotoxicity”; in series [3] (at 100 μM), “slightly reduced cell viability”. Further, the Size of assemblies/particles in living-cell imaging in series [4] was found to be 5 µm.
